Experimental data as given in paper PMC7320180, “Hydroxamic acid derivatives as HDAC1, HDAC6 and HDAC8 inhibitors with antiproliferative activity in cancer cell lines” (Scientific Reports, 2020).
pIC50: −log10 of the molar value.

How the values were obtained:
Assay type in all cases: cell-based
HepG2 cells = experiment: MTT cytotoxicity test, HepG2; conditions: Homo sapiens; for inhibition at 50 µM: HepG2; for pIC50: HepG2, 72 h, read-out: IC50 HepG2
Experimental: (§1) All compounds were evaluated in triplicate using six points, 1/3 dilutions, with the highest concentration of 50 µM. The triplicate measurements were placed in three different 96-plates, and 1% DMSO was used as a negative control.
(§2) The first sets of […] (GH38, GH18, GH27, FH38, FH18, […] and FH37) were evaluated in different cancer cell lines: HepG2, MCF-7, SH-SY5Y, MIA PaCa-2, and […]. Furthermore, the second series of eight compounds were evaluated using seven cell lines: SH-SY5Y which is a neuroblastoma cell line; HepG2, a hepatocellular carcinoma cell line; MIA PaCa-2, a human pancreatic carcinoma cell line; MCF-7, a breast cancer cell line; HCC1954, a basal-Her2+ breast carcinoma cell line; RCC4-VA, a renal carcinoma cell line with a VHL mutation; and RCC4-VHL, a renal carcinoma cell without the VHL mutation (wild type). The cells used were seeded in 96-well plates and left for 24 h (5% CO2 and 90% humidity, 50000 cells/well) and incubated for 3 days to study the cytotoxicity.

MIA PaCa-2 cells = experiment: MTT cytotoxicity test, MIA PaCa-2; conditions: Homo sapiens; for inhibition at 50 µM: MIA PaCa-2; for pIC50: MIA PaCa-2, 72 h, read-out: IC50 MIA PaCa-2
Experimental: as §1, §2

MCF-7 cells = experiment: MTT cytotoxicity test, MCF-7; conditions: Homo sapiens; for inhibition at 50 µM: MCF7; for pIC50: MCF7, 72 h, read-out: IC50 MCF-7
Experimental: as §1, §2

Cc1ccc(C(=O)N[C@@H](Cc2ccccc2)C(=O)NO)cc1 [FH18, (S)-N-(1-(hydroxyamino)-1-oxo-3-phenylpropan-2-yl)-4-methylbenzamide]
inhibition at 50 µM (HepG2 cells): 5.52% | pIC50 (HepG2 cells): < 4.30 | inhibition at 50 µM (MIA PaCa-2 cells): 0.05% | pIC50 (MIA PaCa-2 cells): < 4.30 | inhibition at 50 µM (MCF-7 cells): 41.2% | pIC50 (MCF-7 cells): < 4.30

CCCCc1ccc(C(=O)N[C@@H](Cc2ccccc2)C(=O)NO)cc1 [FH27, (S)-4-butyl-N-(1-(hydroxyamino)-1-oxo-3-phenylpropan-2-yl)benzamide]
inhibition at 50 µM (HepG2 cells): 35.4% | pIC50 (HepG2 cells): < 4.30 | inhibition at 50 µM (MIA PaCa-2 cells): 2.82% | pIC50 (MIA PaCa-2 cells): < 4.30 | inhibition at 50 µM (MCF-7 cells): 37.6% | pIC50 (MCF-7 cells): < 4.30

CCCC(CCC)C(=O)N[C@@H](Cc1ccccc1)C(=O)NO [FH37, (S)-N-(1-(hydroxyamino)-1-oxo-3-phenylpropan-2-yl)-2-propylpentanamide]
inhibition at 50 µM (HepG2 cells): 48.6% | pIC50 (HepG2 cells): < 4.30 | inhibition at 50 µM (MIA PaCa-2 cells): 7.47% | pIC50 (MIA PaCa-2 cells): < 4.30 | inhibition at 50 µM (MCF-7 cells): 49.1% | pIC50 (MCF-7 cells): < 4.30

O=C(N[C@@H](Cc1ccccc1)C(=O)NO)c1ccccc1 [FH38, (S)-N-(1-(hydroxyamino)-1-oxo-3-phenylpropan-2-yl)benzamide]
inhibition at 50 µM (HepG2 cells): 14.1% | pIC50 (HepG2 cells): < 4.30 | inhibition at 50 µM (MIA PaCa-2 cells): 0.43% | pIC50 (MIA PaCa-2 cells): < 4.30 | inhibition at 50 µM (MCF-7 cells): 21% | pIC50 (MCF-7 cells): < 4.30

Cc1ccc(C(=O)NCC(=O)NO)cc1 [GH18, N-(2-(hydroxyamino)-2-oxoethyl)-4-methyl benzamide]
inhibition at 50 µM (HepG2 cells): 3.08% | pIC50 (HepG2 cells): < 4.30 | inhibition at 50 µM (MIA PaCa-2 cells): 4.44% | pIC50 (MIA PaCa-2 cells): < 4.30 | inhibition at 50 µM (MCF-7 cells): 17.2% | pIC50 (MCF-7 cells): < 4.30

CCCCc1ccc(C(=O)NCC(=O)NO)cc1 [GH27, 4-butyl-N-(2-(hydroxyamino)-2-oxoethyl)benzamide]
inhibition at 50 µM (HepG2 cells): 1.38% | pIC50 (HepG2 cells): < 4.30 | inhibition at 50 µM (MIA PaCa-2 cells): 10.7% | pIC50 (MIA PaCa-2 cells): < 4.30 | inhibition at 50 µM (MCF-7 cells): 40.4% | pIC50 (MCF-7 cells): < 4.30

O=C(CNC(=O)c1ccccc1)NO [GH38, N-(2-(hydroxyamino)-2-oxoethyl)benzamide]
inhibition at 50 µM (HepG2 cells): 1.01% | pIC50 (HepG2 cells): < 4.30 | inhibition at 50 µM (MIA PaCa-2 cells): 0.18% | pIC50 (MIA PaCa-2 cells): < 4.30 | inhibition at 50 µM (MCF-7 cells): 16.1% | pIC50 (MCF-7 cells): < 4.30
